Assay [1] deals with A2780. Kind of assay: Cytotoxicity against human A2780 cells at 10 uM after 72 hrs by MTT assay. The format is functional. To be noted: A2780, 72 h.
Assay [2] deals with HeLa. In words: Cytotoxicity against human HeLa cells at 10 uM after 72 hrs by MTT assay. The format is functional.
The subject of assay [3] is A2780. In words: Cytotoxicity against human A2780 cells at 30 uM after 72 hrs by MTT assay. It is filed as functional. To be noted: A2780, 72 h.
Assay [4] has as its system A-431. In words: Cytotoxicity against human A431 cells at 30 uM after 72 hrs by MTT assay. Particulars: A-431, 72 h. The format is functional.
Assay [5] deals with HeLa. Kind of assay: Cytotoxicity against human HeLa cells at 30 uM after 72 hrs by MTT assay. It is filed as functional.
For assay [6], the system named is MCF7. Kind of assay: Cytotoxicity against human MCF7 cells at 30 uM after 72 hrs by MTT assay. The format is functional. Particulars: MCF7, 72 h.
Assay [7] concerns MCF7. In words: Cytotoxicity against human MCF7 cells at 10 uM after 72 hrs by MTT assay. The format is functional. To be noted: MCF7, 72 h.
In assay [8] the test system is A-431. Kind of assay: Cytotoxicity against human A431 cells at 10 uM after 72 hrs by MTT assay. Particulars: A-431, 72 h. It is filed as functional.
Assay [9] deals with A-431. In words: Cytotoxicity against human A431 cells after 72 hrs by MTT assay. Particulars: A-431, 72 h. It is filed as functional, cell-based.
Assay [10] has as its system HeLa. Kind of assay: Cytotoxicity against human HeLa cells after 72 hrs by MTT assay. It is filed as functional, cell-based.
Assay [11] relates to A2780. In words: Cytotoxicity against human A2780 cells after 72 hrs by MTT assay. It is filed as functional, cell-based. To be noted: A2780, 72 h.
Assay [12] has as its system MCF7. Kind of assay: Cytotoxicity against human MCF7 cells after 72 hrs by MTT assay. Particulars: MCF7, 72 h. The format is functional, cell-based.

A value given as a limit tells only on which side of the number the result lay.

Turning to `CC(=O)O[C@H]1CC[C@@]2(C)C(=CC[C@H]3[C@@H]4CC[C@H]([C@@H]5OC(c6ccccc6)=NN5C(C)=O)[C@@]4(C)CC[C@@H]32)C1`, the inhibition at 10 µM with A2780 [1], in the assay with HeLa [2], in the assay on MCF7 [7] and in the assay on A-431 [8] was below 20% throughout. Also, the inhibition at 30 µM in the assay with A2780 [3] was 40.3%; with A-431 [4], 30.6%; in the assay on HeLa [5], 23%; in the assay on MCF7 [6], below 20%.
`C[C@]12CC[C@H]3[C@@H](CC=C4C[C@@H](O)CC[C@@]43C)[C@@H]1CC[C@@H]2c1nnc(-c2ccccc2)o1`: the inhibition at 10 µM in the assay on A2780 [1] amounted to 29.2%; in the assay with HeLa [2], 77.4%; in the assay with MCF7 [7] it was 31.6%; with A-431 [8] it was 68%. Besides, the inhibition at 30 µM with A2780 [3] was determined as 38.7%; in the assay on A-431 [4] it was 69.9%; in the assay on HeLa [5], 80.7%; with MCF7 [6], 35.3%. Besides, the IC50 in the assay with A-431 [9] turned out to be 1.91 µM; in the assay on HeLa [10] it was 1.69 µM.
For `C[C@]12CC[C@H]3[C@@H](CC=C4C[C@@H](O)CC[C@@]43C)[C@@H]1CC[C@@H]2c1nnc(-c2cccnc2)o1`, the inhibition at 10 µM in the assay on A2780 [1] turned out to be 31.9%; with HeLa [2] it was 71.7%; in the assay with MCF7 [7] it was 41.6%; in the assay with A-431 [8], 60.3%. The inhibition at 30 µM was 33.3% in the assay on A2780 [3], 65.4% in the assay with A-431 [4], 74.2% with HeLa [5] and 45.5% in the assay with MCF7 [6]. Besides, the results for the IC50 in the assay with A-431 [9] and with HeLa [10] were 6.76 µM and 4.83 µM, respectively.
`C[C@]12CC[C@H]3[C@@H](CC=C4C[C@@H](O)CC[C@@]43C)[C@@H]1CC[C@@H]2c1nnc(-c2ccco2)o1`: the inhibition at 10 µM came out at 37.5% in the assay with A2780 [1], 74.9% in the assay on HeLa [2], 42% in the assay with MCF7 [7] and 66.6% with A-431 [8]. For the same compound, the inhibition at 30 µM is 37% in the assay with A2780 [3], 69.2% in the assay with A-431 [4], 77.5% in the assay with HeLa [5] and 46.6% with MCF7 [6]. Besides, the IC50 is 1.82 µM in the assay with A-431 [9] and 1.56 µM in the assay with HeLa [10].
As to `CC(=O)O[C@H]1CC[C@@]2(C)C(=CC[C@H]3[C@@H]4CC[C@H](c5nnc(-c6ccccc6)o5)[C@@]4(C)CC[C@@H]32)C1`, the inhibition at 10 µM was below 20% with A2780 [1], below 20% in the assay with HeLa [2], 22.6% in the assay on MCF7 [7] and below 20% in the assay with A-431 [8]. Also, the inhibition at 30 µM came out at 52% in the assay on A2780 [3], 59.1% with A-431 [4], 57.4% in the assay with HeLa [5] and 41.5% with MCF7 [6]. Besides, the IC50 with A2780 [11] turned out to be 28.8 µM; in the assay with A-431 [9], 25.4 µM; in the assay with HeLa [10], 29.4 µM.
`CC(=O)O[C@H]1CC[C@@]2(C)C(=CC[C@H]3[C@@H]4CC[C@H](c5nnc(-c6cccnc6)o5)[C@@]4(C)CC[C@@H]32)C1`: the inhibition at 10 µM is 22.8% in the assay with A2780 [1], 22.5% in the assay on HeLa [2], 21.8% with MCF7 [7] and below 20% with A-431 [8]. In addition, the inhibition at 30 µM in the assay with A2780 [3] amounted to 48.2%; in the assay with A-431 [4] it was 60.8%; in the assay on HeLa [5], 65.8%; in the assay on MCF7 [6], 55.7%. Besides, the IC50 in the assay with A-431 [9] is 23.6 µM; in the assay with MCF7 [12] it was 26.1 µM; in the assay with HeLa [10] it was 20.8 µM.
With `CC(=O)O[C@H]1CC[C@@]2(C)C(=CC[C@H]3[C@@H]4CC[C@H](c5nnc(-c6ccco6)o5)[C@@]4(C)CC[C@@H]32)C1`, the inhibition at 10 µM was 24.1% in the assay with A2780 [1], 27.5% in the assay on HeLa [2], 26.1% in the assay with MCF7 [7] and below 20% in the assay with A-431 [8]. The inhibition at 30 µM amounted to 43.5% in the assay with A2780 [3], 25.9% with A-431 [4], 48.2% in the assay on HeLa [5] and 45.3% in the assay with MCF7 [6].
Regarding `C[C@]12CC[C@H]3[C@@H](CC=C4C[C@@H](O)CC[C@@]43C)[C@@H]1CC[C@@H]2/C=N/NC(=O)c1ccccc1`, the inhibition at 10 µM with A2780 [1] is 32.6%; in the assay on HeLa [2], 72.2%; in the assay on MCF7 [7] it was below 20%; with A-431 [8], below 20%. In addition, the inhibition at 30 µM worked out at 60.9% with A2780 [3], 38.1% in the assay on A-431 [4], 90.4% in the assay with HeLa [5] and 48% in the assay with MCF7 [6]. Besides, the concentration for half-maximal inhibition (IC50) with A2780 [11] is 20.3 µM; in the assay with HeLa [10] it was 4.68 µM.
Take `C[C@]12CC[C@H]3[C@@H](CC=C4C[C@@H](O)CC[C@@]43C)[C@@H]1CC[C@@H]2/C=N/NC(=O)c1cccnc1`: the inhibition at 10 µM is 23.5% in the assay with A2780 [1], 80.5% with HeLa [2], below 20% in the assay on MCF7 [7] and 40.1% in the assay on A-431 [8]. The inhibition at 30 µM in the assay on A2780 [3] stood at 66.4%; in the assay with A-431 [4], 71.8%; in the assay with HeLa [5] it was 90.9%; in the assay with MCF7 [6] it was 82.9%. In addition, the IC50 in the assay on A2780 [11] stood at 11.3 µM; in the assay on A-431 [9], 12.8 µM; in the assay on MCF7 [12], 18.9 µM; with HeLa [10] it was 5.54 µM.
On to `C[C@]12CC[C@H]3[C@@H](CC=C4C[C@@H](O)CC[C@@]43C)[C@@H]1CC[C@@H]2/C=N/NC(=O)c1ccco1`, for which the inhibition at 10 µM stood at 21.1% in the assay with A2780 [1], 78% in the assay with HeLa [2], 21.1% in the assay with MCF7 [7] and 24.9% in the assay on A-431 [8]. In addition, the inhibition at 30 µM was 46.4% with A2780 [3], 26.1% with A-431 [4], 91.2% in the assay with HeLa [5] and 53.2% with MCF7 [6]. For the same compound, the IC50 is 28.2 µM in the assay with MCF7 [12] and 5.57 µM with HeLa [10].
`CC(=O)O[C@H]1CC[C@@]2(C)C(=CC[C@H]3[C@@H]4CC[C@H](/C=N/NC(=O)c5ccccc5)[C@@]4(C)CC[C@@H]32)C1`: the inhibition at 10 µM was 44.3% with A2780 [1], 71.2% in the assay on HeLa [2], below 20% in the assay with MCF7 [7] and 45.1% in the assay on A-431 [8]. Besides, the inhibition at 30 µM in the assay with A2780 [3] amounted to 89.2%; in the assay on A-431 [4], 45.5%; in the assay on HeLa [5], 90.2%; in the assay with MCF7 [6], 44.4%. Further, the IC50 was 11.4 µM in the assay with A2780 [11] and 5.04 µM with HeLa [10].
On to `CC(=O)O[C@H]1CC[C@@]2(C)C(=CC[C@H]3[C@@H]4CC[C@H](/C=N/NC(=O)c5cccnc5)[C@@]4(C)CC[C@@H]32)C1`, for which the inhibition at 10 µM was 27.8% in the assay with A2780 [1], 65.8% in the assay on HeLa [2], below 20% in the assay on MCF7 [7] and 37.1% with A-431 [8]. The inhibition at 30 µM worked out at 84.3% with A2780 [3], 37% in the assay with A-431 [4], 88% in the assay on HeLa [5] and 28.7% with MCF7 [6]. For the same compound, the values for the IC50 with A2780 [11] and in the assay on HeLa [10] were 16.5 µM and 6.44 µM, respectively.
Consider `CC(=O)O[C@H]1CC[C@@]2(C)C(=CC[C@H]3[C@@H]4CC[C@H](/C=N/NC(=O)c5ccco5)[C@@]4(C)CC[C@@H]32)C1`, for which the inhibition at 10 µM was determined as 26.2% in the assay with A2780 [1], 77.8% in the assay with HeLa [2], 26.7% in the assay on MCF7 [7] and 39% with A-431 [8]. Further, the inhibition at 30 µM with A2780 [3] stood at 70.5%; with A-431 [4], 40.4%; with HeLa [5] it was 91.2%; in the assay on MCF7 [6], 55.1%. Moreover, the IC50 in the assay with A2780 [11] stood at 11.3 µM; in the assay on MCF7 [12], 11.9 µM; with HeLa [10] it was 6.95 µM.
Turning to `CC(=O)O[C@H]1CC[C@@]2(C)C(=CC[C@H]3[C@@H]4CC[C@H]([C@H]5OC(c6ccccc6)=NN5C(C)=O)[C@@]4(C)CC[C@@H]32)C1`, the inhibition at 10 µM is 20.2% in the assay on A2780 [1], below 20% with HeLa [2], below 20% in the assay on MCF7 [7] and 22.7% in the assay with A-431 [8]. Besides, the inhibition at 30 µM in the assay with A2780 [3] is 53.5%; in the assay with A-431 [4], 41.7%; in the assay with HeLa [5], 71.3%; with MCF7 [6], 26.7%. For the same compound, the values for the concentration for half-maximal inhibition (IC50) in the assay with A2780 [11] and in the assay with HeLa [10] were 27.3 µM and 21.5 µM, respectively.
